The values below come from US12319699B2, “L-proline sulfonamide derivatives comprising pyrazolo[4,3-e]tetrazolo[4,5-b][1,2,4]triazine system, method of manufacturing thereof, uses thereof and pharmaceutical composition comprising the same” (UNIWERSYTET MEDYCZNY W BIALYMSTOKU, priority 2018, dated 2025).

The structures appear in SMILES notation.

Holding throughout (assay type): cell-based
Assay [1] has as its system DLD-1 human colorectal cancer cells. The assay can be described thus: DNA biosynthesis, [3H]-thymidine incorporation. Conditions: DLD-1, 24-hour incubation. The procedure:
DLD-1 human colorectal cancer cells (ATCC CCL-221, Manassas, VA, USA) were grown in DMEM (Dulbecco's Modified Eagle's Medium) supplemented with 10% fetal bovine serum (FBS), 2 mM glutamine, 50 U/ml penicillin, 50 μg/ml streptomycin at 37° C., in atmosphere containing 5% of CO2. Then the cells were counted in a hemocytometer and transferred in the amount of 1×10^6 cells per well in 1 ml of culture medium from Costar flasks (Sigma, USA) to Nunc 6-well plates (Wiesbaden, Germany). The cells were transferred using calcium-free phosphate buffer with the addition of 0.05% trypsin and 0.02% EDTA. […] Within the subsequent 24 hours the cells covered at least 80% of the surface of each plate well. The cells prepared in this manner were incubated with the examined compounds for 24 hours and then used for further experiments.
(§1) The effect of the examined compounds according to the invention on the process of DNA biosynthesis was assessed by measuring incorporation of [^3H]-thymidine into DNA of the examined cells. […] After 5 minutes, the cell lysate obtained was transferred to scintillation vials containing 2 ml of scintillation fluid and radioactivity was measured. […] The values from the examined samples were expressed as percentage of the control value. The significance level p was determined by the nonparametric Mann-Whitney U test by means of SigmaStat software. […]

The subject of assay [2] is HT-29 human colorectal cancer cells. The assay can be described thus: DNA biosynthesis, [3H]-thymidine incorporation. The following applies: HT-29, 24-hour incubation. The method, then:
HT-29 human colorectal cancer cells (ATCC HTB-38, Manassas, VA, USA) were cultured in McCoy's 5A medium supplemented with 10% fetal bovine serum (FBS), 2 mM glutamine, 50 U/ml penicillin, 50 μg/ml of streptomycin at 37° C., in atmosphere containing 5% CO2. Subsequently, the cells were counted in a hemocytometer and were transferred in the amount of 1×10^6 cells per well in 1 ml of culture medium from Costar flasks (Sigma, USA) to Nunc 6-well plates (Wiesbaden, Germany). The cells were transferred using calcium-free phosphate buffer with the addition of 0.05% trypsin and 0.02% EDTA. […] Within the subsequent 24 hours the cells covered at least 80% of the surface of each plate well. The cells prepared in this manner were incubated with the examined compounds for 24 hours and then used for further experiments.
as §1

Assay [3] relates to AGS human gastric cancer cells. The assay can be described thus: DNA biosynthesis, [3H]-thymidine incorporation. The following applies: 24-hour incubation. The procedure: (§2) AGS human gastric cancer cells (ATCC CRL-1739, Manassas, VA, USA) were cultured in DMEM (Dulbecco's Modified Eagle's Medium) supplemented with 10% fetal bovine serum (FBS), 2 mM glutamine, 50 U/ml penicillin, 50 μg/ml streptomycin at 37° C., in atmosphere containing 5% CO2. Subsequently, the cells were counted in a hemocytometer and transferred in the amount of […] cells per well in 1 ml of culture medium from Costar flasks (Sigma, USA) to Nunc 6-well plates (Wiesbaden, Germany). The cells were transferred using calcium-free phosphate buffer with the addition of 0.05% trypsin and 0.02% EDTA. […] Within the subsequent 24 hours the cells covered at least 80% of the surface of each plate well. The cells prepared in this manner were incubated with the examined compounds for 24 hours and then used for further experiments.
as §1

For assay [4], the system named is AGS human gastric cancer cells. The assay can be described thus: Cytotoxicity, MTT assay (Carmichael's method), cell survival. Conditions: 24-hour incubation. The method, then: as §2, with “The cells prepared in this manner were incubated with the examined compounds for 24 hours and then used for further experiments.” left out
Cytotoxicity of the examined compounds according to the invention was measured by Carmichael's method (Carmichael J et al, Cancer Res., 1987, 47:943-946) and cell viability was determined using the tetrazolium salt (MT) in MTT assay. […] In a cell lysate prepared in such manner absorbance at 630 nm was measured. The result of absorbance obtained in the control cell cultures was assumed to be 100%. The viability of cells incubated in the presence of the examined compounds was expressed as percentage of the control values. The significance level p was determined by the nonparametric Mann-Whitney U test by means of SigmaStat software. […]

On to `COC(=O)C1CCCN1S(=O)(=O)c1ccc(-n2nc(C)c3nc4nnnn4nc32)cc1` (centres unmarked) [Compound of Formula 2, Methyl 1-[4-(7-methyl-5H-pyrazol[4,3-e]tetrazolo[4,5-b][1,2,4]triazyn-5-yl)phenylsulfonyl]pyrrolidine-2-carboxylate], for which the IC50 in assay [1] was 560 ± 10 nM; in assay [2] it was 3620 ± 20 nM; in assay [3] it was 550 ± 10 nM; in assay [4], 920 ± 10 nM.

For the molecule `COC(=O)C1CC(O)CN1S(=O)(=O)c1ccc(-n2nc(C)c3nc4nnnn4nc32)cc1` (centres unmarked) [Compound of Formula 3, Methyl 4-hydroxy-1-[4-(7-methyl-5H-pyrazolo[4,3-e]tetrazolo[4,5-b][1,2,4]triazyn-5-yl)phenylsulfonyl]pyrrolidine-2-carboxylate], the IC50 in assay [1] stood at 1550 ± 20 nM; in assay [2] it was 2300 ± 20 nM; in assay [3], 1050 ± 10 nM; in assay [4], 800 ± 10 nM.
